Among the test systems are KM12; HCT-116; K562; SNB-19; NCI-H460; UO-31; NCI-H23; SW-620; SK-OV-3; M14; HL-60; IGROV-1; OVCAR-3; SK-MEL-5; A549; CCRF-CEM; KM-20L2; RXF 393; DU-145; MDA-MB-231.
What all share (test): NCI-60 cell line screen, 48 h

SMILES strings stand for the structures.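 In this assay, cells in 96-well plates receive the compound at five concentrations for 48 hours. Endpoints are linearly interpolated between the surrounding concentrations. Abbreviation: GI50, concentration required for 50% inhibition of growth.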 Activity calls are given as the source filed them. Rule as the data show it: active = GI50 up to about 1.1 µM and inactive = higher.

As for `Cc1nc(N)nc(N)c1CCCCc1ccc(N)cc1`, the GI50 was 9.35 µM (inactive) in the assay on KM12; 0.569 µM (active) in the assay with HCT-116; 0.321 µM (active) with K562; 6.87 µM (inactive) in the assay with SNB-19; 0.959 µM (active) in the assay on NCI-H460; 13.2 µM (inactive) with UO-31. Moreover, the GI50 was 4.37 µM (inactive) in the assay on NCI-H23; 3.29 µM (inactive) in the assay on SW-620; 2.88 µM (inactive) with SK-OV-3; 2.58 µM (inactive) in the assay on M14; 3.07 µM (inactive) in the assay with HL-60; 3.35 µM (inactive) in the assay on IGROV-1. Also, the GI50 is 5.53 µM (inactive) in the assay with OVCAR-3; 3.43 µM (inactive) with SK-MEL-5; 0.668 µM (active) with A549; 3.01 µM (inactive) in the assay on CCRF-CEM; 3.74 µM (inactive) in the assay on KM-20L2.

As to `COC(=O)C1CC(C(=O)OC)c2nc3cc(C)ccc3nc21` (stereo unspecified), the GI50 with KM12, in the assay with K562, with SNB-19, with NCI-H460, with UO-31 and in the assay on NCI-H23 was > 100 µM (inactive) in each case. Also, the GI50 in the assay with SW-620, in the assay with SK-OV-3, with M14, with HL-60, in the assay on IGROV-1 and in the assay on OVCAR-3 was > 100 µM (inactive) in each case. The GI50 with SK-MEL-5, in the assay on A549, in the assay on CCRF-CEM and with KM-20L2 was > 100 µM (inactive) in each case.

As for `COc1cc(C2(C)SCCCS2)cc(OC)c1OC`, the GI50 in the assay on KM12, in the assay on HCT-116, in the assay with K562, with SNB-19, with NCI-H460 and with UO-31 was > 100 µM (inactive) each time. The GI50 in the assay with NCI-H23, with SW-620, with SK-OV-3, in the assay with M14, with HL-60 and in the assay with IGROV-1 was > 100 µM (inactive) throughout. Besides, the GI50 in the assay on OVCAR-3, in the assay on SK-MEL-5, in the assay with A549, with CCRF-CEM and in the assay on KM-20L2 was > 100 µM (inactive) each time.

As for `CCN1CC2=C(OC(N)=C(C#N)C2c2ccc(Cl)cc2)/C(=C/c2ccc(Cl)cc2)C1` (stereo unspecified), the GI50 in the assay on KM12 was 33.2 µM (inactive); in the assay with HCT-116 it was 14.1 µM (inactive); with K562 it was 8.81 µM (inactive); with SNB-19, 15 µM (inactive); with NCI-H460 it was 14 µM (inactive); in the assay with UO-31 it was 36.4 µM (inactive). Further, the GI50 is 22.5 µM (inactive) with NCI-H23; 44.1 µM (inactive) in the assay on SW-620; 18.7 µM (inactive) in the assay on SK-OV-3; 21.5 µM (inactive) in the assay on M14; 12.3 µM (inactive) with RXF 393; > 100 µM (inactive) in the assay with HL-60. Further, the GI50 in the assay with IGROV-1 was 20.8 µM (inactive); with OVCAR-3 it was 21.8 µM (inactive); in the assay on SK-MEL-5 it was 13.1 µM (inactive); in the assay on A549 it was 14.2 µM (inactive); in the assay on DU-145, 42.4 µM (inactive); in the assay on CCRF-CEM, 18.3 µM (inactive). Moreover, in the assay with MDA-MB-231, the GI50 was 16.1 µM (inactive).

Take `CC1=C(C)SC(=C2Sc3[n-]c(=O)[nH]c(=O)c3S2)S1.CCCC[N+](CCCC)(CCCC)CCCC`: the GI50 in the assay with KM12 is 98.2 µM (inactive); with HCT-116 it was > 100 µM (inactive); with K562, 49.4 µM (inactive); in the assay with SNB-19 it was 73.1 µM (inactive); in the assay with NCI-H460, > 100 µM (inactive); in the assay with UO-31, > 100 µM (inactive). The GI50 with NCI-H23 is > 100 µM (inactive); in the assay on SW-620, > 100 µM (inactive); in the assay with SK-OV-3, > 100 µM (inactive); in the assay with M14, 31.3 µM (inactive); in the assay with RXF 393, > 100 µM (inactive); in the assay with HL-60 it was < 0.01 µM (active). Moreover, the GI50 with IGROV-1 was > 100 µM (inactive); in the assay on OVCAR-3 it was 46.1 µM (inactive); in the assay with SK-MEL-5, 28.5 µM (inactive); in the assay with A549, > 100 µM (inactive); in the assay with DU-145, > 100 µM (inactive); in the assay on CCRF-CEM, 40.4 µM (inactive). Moreover, the GI50 in the assay with MDA-MB-231 was > 100 µM (inactive).

With `Oc1ccc(-c2n[nH]c(S)n2)cc1`, the GI50 with KM12, in the assay on HCT-116, with K562, with SNB-19, in the assay with NCI-H460 and with UO-31 was > 100 µM (inactive) in each case. For the same compound, the GI50 with NCI-H23, in the assay with SW-620, with SK-OV-3, with M14, with HL-60 and in the assay on IGROV-1 was > 100 µM (inactive) throughout. The GI50 in the assay with OVCAR-3, in the assay with SK-MEL-5, with A549, in the assay with CCRF-CEM and with KM-20L2 was > 100 µM (inactive) in each case.

`N/C(=N\c1ccccc1Cl)c1ccccc1N`: the GI50 in the assay on KM12, in the assay with HCT-116, with K562, in the assay with SNB-19, in the assay with NCI-H460 and in the assay with UO-31 was > 100 µM (inactive) each time. The GI50 with NCI-H23, in the assay with SW-620, in the assay on SK-OV-3, in the assay on M14, with RXF 393 and in the assay with HL-60 was > 100 µM (inactive) in each case. Further, the GI50 in the assay with IGROV-1 is 45.8 µM (inactive); with OVCAR-3 it was > 100 µM (inactive); with SK-MEL-5 it was > 100 µM (inactive); in the assay with A549 it was > 100 µM (inactive); with DU-145, > 100 µM (inactive); in the assay with CCRF-CEM, > 100 µM (inactive). In the assay with MDA-MB-231, the GI50 was > 100 µM (inactive).

For the compound `CNC(=O)NCNC(=O)NC`, the GI50 with KM12, in the assay with HCT-116, in the assay with K562, in the assay on NCI-H460, in the assay on NCI-H23 and with SW-620 was > 100 µM (inactive) each time. Further, the GI50 in the assay with SK-OV-3, with M14, in the assay with HL-60, with IGROV-1, in the assay with OVCAR-3 and in the assay with SK-MEL-5 was > 100 µM (inactive) in each case. Moreover, the GI50 with A549, in the assay on CCRF-CEM and with KM-20L2 was > 100 µM (inactive) in each case.

Consider `COc1ccc(/N=N/C(=O)NC(CC(C)C)C(N)=O)cc1` (stereo unspecified), for which the GI50 with KM12 is 5.27 µM (inactive); with HCT-116, > 31.6 µM (inactive); with K562 it was 1.43 µM (inactive); in the assay with SNB-19 it was > 100 µM (inactive); in the assay with NCI-H460, 11.6 µM (inactive); with UO-31 it was 5.41 µM (inactive). In addition, the GI50 in the assay on NCI-H23 is > 100 µM (inactive); with SW-620, > 29.2 µM (inactive); in the assay on SK-OV-3 it was > 100 µM (inactive); with M14 it was > 28.9 µM (inactive); in the assay with RXF 393, > 31.6 µM (inactive); in the assay with HL-60 it was > 100 µM (inactive). The GI50 with IGROV-1 is > 100 µM (inactive); with OVCAR-3, > 50 µM (inactive); in the assay on SK-MEL-5, > 62.4 µM (inactive); with A549 it was 9.14 µM (inactive); with DU-145 it was 49.1 µM (inactive); in the assay with CCRF-CEM, > 27.7 µM (inactive). The GI50 in the assay on MDA-MB-231 was > 31.6 µM (inactive).

Consider `CCOC(=O)CC[C@H](NC(=O)[C@H](N)Cc1ccc(N(CCCl)CCCl)cc1)C(=O)OCC`, for which the GI50 with KM12 is 16 µM (inactive); in the assay on HCT-116, 22.2 µM (inactive); with K562, 22.6 µM (inactive); in the assay on SNB-19, 27.6 µM (inactive); in the assay on NCI-H460, 2.61 µM (inactive); in the assay with UO-31, 14.1 µM (inactive). Further, the GI50 in the assay on NCI-H23 was 3.08 µM (inactive); with SW-620 it was 18 µM (inactive); with SK-OV-3, 36.3 µM (inactive); in the assay on M14, 8.65 µM (inactive); with RXF 393, 14.2 µM (inactive); in the assay with HL-60 it was 5.3 µM (inactive). Besides, the GI50 in the assay on IGROV-1 was 40.6 µM (inactive); in the assay on OVCAR-3 it was 8.28 µM (inactive); in the assay on SK-MEL-5 it was 10.4 µM (inactive); in the assay on A549 it was 35.4 µM (inactive); with DU-145, 13.2 µM (inactive); with CCRF-CEM it was 1.14 µM (inactive). In the assay with MDA-MB-231, the GI50 was 29.4 µM (inactive).

Regarding `COc1cccc(/C=N/C(/N=C/c2cccc(OC)c2O)c2cccc(OC)c2O)c1O`, the GI50 in the assay with KM12 is 22.6 µM (inactive); with HCT-116, 14.6 µM (inactive); with K562, 24.7 µM (inactive); in the assay with SNB-19, 22.6 µM (inactive); in the assay on NCI-H460 it was 21.7 µM (inactive); in the assay on UO-31 it was 20.1 µM (inactive). Further, the GI50 with NCI-H23 was 28.8 µM (inactive); with SW-620, 27.5 µM (inactive); in the assay on SK-OV-3, 26 µM (inactive); with M14, 17.1 µM (inactive); in the assay with RXF 393, 8.39 µM (inactive); with HL-60, 25.9 µM (inactive). Further, the GI50 with IGROV-1 is 21.7 µM (inactive); in the assay on OVCAR-3 it was 11.7 µM (inactive); with SK-MEL-5 it was 15 µM (inactive); in the assay on A549 it was 26.7 µM (inactive); with DU-145 it was 18.4 µM (inactive); in the assay on CCRF-CEM it was 7 µM (inactive). Moreover, in the assay with MDA-MB-231, the GI50 was 25.1 µM (inactive).

For the origin of these results see ChEMBL document CHEMBL1201862, “PubChem BioAssay data set” (2004).
